Reference: patent US8222404B2, “[1,2,4]Thiadiazin-3-yl acetic acid compound and methods of making the acetic acid compound” (Anadys Pharmaceuticals, Inc., priority 2008, dated 2012)
pEC50: −log10 of the molar value.

system: HCV Huh-luc/neo-ET replicon cells; assay: Luciferase-Based HCV Replicon Assay (EC50 (1b)); format: cell-based; conditions: 72 hours exposure, luciferase activity
In short: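 Replicon cells seeded, then exposed 24 h later to a compound concentration series in triplicate for 72 h. Luciferase luminescence read; % inhibition vs no-compound control, with 100 nM BILN-2061 as background, used to derive EC50 (1b).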

SMILES	pEC50
CS(=O)(=O)NCc1csc2c1S(=O)(=O)N=C(C1=C(O)C3C4CCC(C5CC54)C3N(Cc3ccc(F)cc3)C1=O)N2 (racemic) [Example 23, (rac-di-exo)-N-{3-[3-(4-Fluoro-benzyl)-6-hydroxy-4-oxo-3-aza-tetracyclo[6.3.2.0^2,7.0^9,11]tridec-5-en-5-yl]-1,1-dioxo-1,4-dihydro-1λ^6-thieno[2,3-e][1,2,4]thiadiazin-7-ylmethyl}-methanesulfonamide]	≥ 8.30

same assay, conditions: Hepatitis C virus, 72 hours exposure, luciferase activity

SMILES	pEC50
CS(=O)(=O)NCc1csc2c1S(=O)(=O)N=C(C1=C(O)[C@@H]3CCC[C@@H]3N(Cc3ccc(F)cc3F)C1=O)N2 [Example 112, (4aR,7aS)-N-{3-[1-(2,4-Difluoro-benzyl)-4-hydroxy-2-oxo-2,4a,5,6,7,7a-hexahydro-1H-[1]pyrindin-3-yl]-1,1-dioxo-1,4-dihydro-1λ^6-thieno[2,3-e][1,2,4]thiadiazin-7-ylmethyl}-methanesulfonamide]	7.00 to 7.70
CS(=O)(=O)NCc1csc2c1S(=O)(=O)N=C(C1=C(O)[C@@H]3CCC[C@@H]3N(Cc3ccsc3)C1=O)N2 [Example 127, (4aR,7aS)-N-[3-(4-Hydroxy-2-oxo-1-thiophen-3-ylmethyl-2,4a,5,6,7,7a-hexahydro-1H-[1]pyrindin-3-yl)-1,1-dioxo-1,4-dihydro-1λ^6-thieno[2,3-e][1,2,4]thiadiazin-7-ylmethyl]-methanesulfonamide]	7.70 to 8.30
CS(=O)(=O)NCc1csc2c1S(=O)(=O)N=C(C1=C(O)[C@@H]3C4CCC(CC4)[C@@H]3N(Cc3ccc(F)c(F)c3)C1=O)N2 [Example 92, N-{3-[(2S,7R)-3-(3,4-Difluoro-benzyl)-6-hydroxy-4-oxo-3-aza-tricyclo[6.2.2.0^2,7]dodec-5-en-5-yl]-1,1-dioxo-1,4-dihydro-1λ^6-thieno[2,3-e][1,2,4]thiadiazin-7-ylmethyl}-methanesulfonamide]	≥ 8.30
CS(=O)(=O)NCc1csc2c1S(=O)(=O)N=C(C1=C(O)C3CCCCCC3N(Cc3ccc(F)c(Cl)c3)C1=O)N2 (racemic) [Example 123, (rac-cis)-N-{3-[1-(3-Chloro-4-fluoro-benzyl)-4-hydroxy-2-oxo-2,4a,5,6,7,8,9,9a-octahydro-1H-cyclohepta[b]pyridin-3-yl]-1,1-dioxo-1,4-dihydro-1λ^6-thieno[2,3-e][1,2,4]thiadiazin-7-ylmethyl}-methanesulfonamide]	6.00 to 7.00
CS(=O)(=O)NCc1csc2c1S(=O)(=O)N=C(C1=C(O)[C@@H]3C4CCC(CC4)[C@@H]3N(Cc3ccc(F)c(Cl)c3)C1=O)N2 [Example 44, N-{3-[(2S,7R)-3-(3-Chloro-4-fluoro-benzyl)-6-hydroxy-4-oxo-3-aza-tricyclo[6.2.2.0^2,7]dodec-5-en-5-yl]-1,1-dioxo-1,4-dihydro-1λ^6-thieno[2,3-e][1,2,4]thiadiazin-7-ylmethyl}-methanesulfonamide]	≥ 8.30
CS(=O)(=O)NCc1csc2c1S(=O)(=O)N=C(C1=C(O)C3CCCCC3N(CC3CCCCC3)C1=O)N2 (racemic) [Example 104, (rac-cis)-N-[3-(1-Cyclohexylmethyl-4-hydroxy-2-oxo-1,2,4a,5,6,7,8,8a-octahydro-quinolin-3-yl)-1,1-dioxo-1,4-dihydro-1λ^6-thieno[2,3-e][1,2,4]thiadiazin-7-ylmethyl]-methanesulfonamide]	6.00 to 7.00
CS(=O)(=O)NCc1csc2c1S(=O)(=O)N=C(C1=C(O)[C@@H]3C4CCC(CC4)[C@@H]3N(Cc3cc(F)c(F)c(F)c3)C1=O)N2 [Example 70, N-{3-[(2S,7R)-6-Hydroxy-4-oxo-3-(3,4,5-trifluoro-benzyl)-3-aza-tricyclo[6.2.2.0^2,7]dodec-5-en-5-yl]-1,1-dioxo-1,4-dihydro-1λ^6-thieno[2,3-e][1,2,4]thiadiazin-7-ylmethyl}-methanesulfonamide]	≥ 8.30
CC(=O)NCc1csc2c1S(=O)(=O)N=C(C1=C(O)[C@@H]3[C@H]4CC[C@H](C4)[C@@H]3N(Cc3ccc(F)cc3)C1=O)N2 [Example 35, N-{3-[(1R,2S,7R,8S)-3-(4-Fluoro-benzyl)-6-hydroxy-4-oxo-3-aza-tricyclo[6.2.1.0^2,7]undec-5-en-5-yl]-1,1-dioxo-1,4-dihydro-1λ^6-thieno[2,3-e][1,2,4]thiadiazin-7-ylmethyl}-acetamide]	7.70 to 8.30
CS(=O)(=O)NCc1csc2c1S(=O)(=O)N=C(C1=C(O)[C@@H]3C4CCC(CC4)[C@@H]3N(Cc3ccc(F)cc3)C1=O)N2 [Example 91, N-{3-[(2S,7R)-3-(4-Fluoro-benzyl)-6-hydroxy-4-oxo-3-aza-tricyclo[6.2.2.0^2,7]dodec-5-en-5-yl]-1,1-dioxo-1,4-dihydro-1λ^6-thieno[2,3-e][1,2,4]thiadiazin-7-ylmethyl}-methanesulfonamide]	≥ 8.30
CS(=O)(=O)NCc1csc2c1S(=O)(=O)N=C(C1=C(O)[C@@H]3CCC[C@@H]3N(CC3CCCCC3)C1=O)N2 [Example 103, (4aR,7aS)-N-[3-(1-Cyclohexylmethyl-4-hydroxy-2-oxo-2,4a,5,6,7,7a-hexahydro-1H-[1]pyrindin-3-yl)-1,1-dioxo-1,4-dihydro-1λ^6-thieno[2,3-e][1,2,4]thiadiazin-7-ylmethyl]-methanesulfonamide]	7.00 to 7.70
CS(=O)(=O)NCc1csc2c1S(=O)(=O)N=C(C1=C(O)[C@@H]3[C@H]4CC[C@H](C4)[C@@H]3N(CC3(C(F)(F)F)CC3)C1=O)N2 [Example 29, N-{3-[(1R,2S,7R,8S)-6-Hydroxy-4-oxo-3-(1-trifluoromethyl-cyclopropylmethyl)-3-aza-tricyclo[6.2.1.0^2,7]undec-5-en-5-yl]-1,1-dioxo-1,4-dihydro-1λ^6-thieno[2,3-e][1,2,4]thiadiazin-7-ylmethyl}-methanesulfonamide]	7.70 to 8.30
CS(=O)(=O)NCc1csc2c1S(=O)(=O)N=C(C1=C(O)C3C4CCC(O4)C3N(Cc3ccc(F)cc3)C1=O)N2 (racemic) [Example 90, (rac-di-exo)-N-{3-[3-(4-Fluoro-benzyl)-6-hydroxy-4-oxo-11-oxa-3-aza-tricyclo[6.2.1.0^2,7]undec-5-en-5-yl]-1,1-dioxo-1,4-dihydro-1λ^6-thieno[2,3-e][1,2,4]thiadiazin-7-ylmethyl}-methanesulfonamide]	7.70 to 8.30
CS(=O)(=O)NCc1csc2c1S(=O)(=O)N=C(C1=C(O)C(C3CCCC3)CN(Cc3ccc(F)cc3)C1=O)N2 (racemic) [Example 16, rac-N-{3-[5-Cyclopentyl-1-(4-fluoro-benzyl)-4-hydroxy-2-oxo-1,2,5,6-tetrahydro-pyridin-3-yl]-1,1-dioxo-1,4-dihydro-1λ^6-thieno[2,3-e][1,2,4]thiadiazin-7-ylmethyl}-methanesulfonamide]	7.00 to 7.70
CS(=O)(=O)NCc1csc2c1S(=O)(=O)N=C(C1=C(O)[C@@H]3[C@H]4CC[C@H](C4)[C@@H]3N(Cc3cc(F)c(F)c(F)c3)C1=O)N2 [Example 54, N-{3-[(1R,2S,7R,8S)-6-Hydroxy-4-oxo-3-(3,4,5-trifluoro-benzyl)-3-aza-tricyclo[6.2.1.0^2,7]undec-5-en-5-yl]-1,1-dioxo-1,4-dihydro-1λ^6-thieno[2,3-e][1,2,4]thiadiazin-7-ylmethyl}-methanesulfonamide]	7.70 to 8.30
COc1cc(CN2C(=O)C(C3=NS(=O)(=O)c4c(CNS(C)(=O)=O)csc4N3)=C(O)[C@@H]3[C@H]4CC[C@H](C4)[C@@H]32)ccc1F [Example 38, N-{3-[(1R,2S,7R,8S)-3-(4-Fluoro-3-methoxy-benzyl)-6-hydroxy-4-oxo-3-aza-tricyclo[6.2.1.0^2,7]undec-5-en-5-yl]-1,1-dioxo-1,4-dihydro-1λ^6-thieno[2,3-e][1,2,4]thiadiazin-7-ylmethyl}-methanesulfonamide]	7.70 to 8.30
COc1ccc(CN2C(=O)C(C3=NS(=O)(=O)c4c(CNS(C)(=O)=O)csc4N3)=C(O)C3CCCCC32)c(OC)c1 (racemic) [Example 78, (rac-cis)-N-{3-[1-(2,4-Dimethoxy-benzyl)-4-hydroxy-2-oxo-1,2,4a,5,6,7,8,8a-octahydro-quinolin-3-yl]-1,1-dioxo-1,4-dihydro-1λ^6-thieno[2,3-e][1,2,4]thiadiazin-7-ylmethyl}-methanesulfonamide]	< 6.00
CS(=O)(=O)NCc1csc2c1S(=O)(=O)N=C(C1=C(O)[C@@H]3[C@H]4CC[C@H](C4)[C@@H]3N(Cc3ccsc3)C1=O)N2 [Example 55, N-[(1R,2S,7R,8S)-3-(6-Hydroxy-4-oxo-3-thiophen-3-ylmethyl-3-aza-tricyclo[6.2.1.0^2,7]undec-5-en-5-yl)-1,1-dioxo-1,4-dihydro-1λ^6-thieno[2,3-e][1,2,4]thiadiazin-7-ylmethyl]-methanesulfonamide]	≥ 8.30
Cc1cc(CN2C(=O)C(C3=NS(=O)(=O)c4c(CNS(C)(=O)=O)csc4N3)=C(O)[C@@H]3[C@H]4CC[C@H](C4)[C@@H]32)ccc1F [Example 53, N-{3-[(1R,2S,7R,8S)-3-(4-Fluoro-3-methyl-benzyl)-6-hydroxy-4-oxo-3-aza-tricyclo[6.2.1.0^2,7]undec-5-en-5-yl]-1,1-dioxo-1,4-dihydro-1λ^6-thieno[2,3-e][1,2,4]thiadiazin-7-ylmethyl}-methanesulfonamide]	7.70 to 8.30
COc1ccc(CN2C(=O)C(C3=NS(=O)(=O)c4c(CNS(C)(=O)=O)csc4N3)=C(O)C3C4C=CC(C4)C32)c(OC)c1 (racemic) [Example 76, (rac-di-exo)-N-{3-[3-(2,4-Dimethoxy-benzyl)-6-hydroxy-4-oxo-3-aza-tricyclo[6.2.1.0^2,7]undeca-5,9-dien-5-yl]-1,1-dioxo-1,4-dihydro-1λ^6-thieno[2,3-e][1,2,4]thiadiazin-7-ylmethyl}-methanesulfonamide]	< 6.00
CS(=O)(=O)NCc1csc2c1S(=O)(=O)N=C(C1=C(O)C3CCCCC3NC1=O)N2 (racemic) [Example 86, (rac-cis)-N-[3-(4-Hydroxy-2-oxo-1,2,4a,5,6,7,8,8a-octahydro-quinolin-3-yl)-1,1-dioxo-1,4-dihydro-1λ^6-thieno[2,3-e][1,2,4]thiadiazin-7-ylmethyl]-methanesulfonamide]	< 6.00
